In ChEMBL document CHEMBL2203043, “Carbonic anhydrase inhibitors. Regioselective synthesis of novel series 1-substituted 1,4-dihydro-4-oxo-3-pyridinesulfonamides and their inhibition of the human cytosolic isozymes I and II and transmembrane cancer-associated isozymes IX and XII” (Eur J Med Chem, 2012):

What follows are molecules tested against Carbonic anhydrase 9 (Homo sapiens, UniProt Q16790) (assay: Inhibition of human CA9 after 15 mins by stopped-flow CO2 hydrase assay).
For `NS(=O)(=O)c1cn(Cc2nc3ccccc3c(=O)n2-c2ccc(Cl)cc2)ccc1=O`, the Ki was 71.2 nM.
Molecule `Cc1ccc(S(=O)(=O)NNC(=O)Cn2ccc(=O)c(S(N)(=O)=O)c2)cc1` has a Ki of 11.8 nM.
Molecule `Cc1ccc(-n2c(Cn3ccc(=O)c(S(N)(=O)=O)c3)nc3ccccc3c2=O)cc1` has a Ki of 70.3 nM.
Work on `CCN(c1ccccc1)c1nc(N)nc(Cn2ccc(=O)c(S(N)(=O)=O)c2)n1` yielded a Ki of 50.1 nM.
`Nc1nc(Cn2ccc(=O)c(S(N)(=O)=O)c2)nc(N2CCOCC2)n1` showed a Ki of 72.5 nM.
`CN(C)c1nc(N)nc(Cn2ccc(=O)c(S(N)(=O)=O)c2)n1` was tested, and the Ki was 16.5 nM.
`NS(=O)(=O)c1cn(Cc2nc3ccccc3c(=O)n2-c2ccccc2)ccc1=O` gave a Ki of 76.2 nM.
With `COC(=O)c1ccccc1NC(=O)Cn1ccc(=O)c(S(N)(=O)=O)c1` the Ki was 86.4 nM.
In the case of `NS(=O)(=O)c1cn(CC(=O)NS(=O)(=O)c2ccccc2Cl)ccc1=O`, the Ki is reported as 29.7 nM.
Molecule `Cc1cccc(C)c1NC(=O)Cn1ccc(=O)c(S(N)(=O)=O)c1` has a Ki of 17.3 nM.
`NS(=O)(=O)c1cn(CC(=O)Nc2ccc(Cl)cc2)ccc1=O` gave a Ki of 93.4 nM.
With `NS(=O)(=O)c1cn(CC2CC2)ccc1=O` the Ki was 85.1 nM.
For `NS(=O)(=O)c1cn(CC(=O)Nc2cccc([N+](=O)[O-])c2)ccc1=O`, the Ki was 33.4 nM.
`NS(=O)(=O)c1cn(CC(=O)NS(=O)(=O)c2ccc(Cl)cc2)ccc1=O` gave a Ki of 38.6 nM.
With `NS(=O)(=O)c1cn(CC(=O)Nc2ccc(Cl)c([N+](=O)[O-])c2)ccc1=O` the Ki was 60.6 nM.
With `CC1=NN(c2nc(N)nc(Cn3ccc(=O)c(S(N)(=O)=O)c3)n2)CC1` the Ki was 77.8 nM.
With `N#CCCCn1ccc(=O)c(S(N)(=O)=O)c1` the Ki was 67.2 nM.
In the case of `CCOC(=O)Cn1ccc(=O)c(S(N)(=O)=O)c1`, the Ki is reported as 60.1 nM.
Molecule `NS(=O)(=O)c1cn(CCO)ccc1=O` has a Ki of 54.7 nM.
For `NS(=O)(=O)c1cn(CC(=O)NS(=O)(=O)c2ccc([N+](=O)[O-])cc2)ccc1=O`, the Ki was 65.2 nM.
Molecule `CC1=NN(c2nc(N)nc(Cn3ccc(=O)c(S(N)(=O)=O)c3)n2)C(C)(C)C1` has a Ki of 66.3 nM.
With `NS(=O)(=O)c1cn(CC(=O)NNC(=O)c2ccco2)ccc1=O` the Ki was 56.1 nM.
For `Cc1noc(C)c1Cn1ccc(=O)c(S(N)(=O)=O)c1`, the Ki was 23.1 nM.

Organism: Homo sapiens
Experiment: Selectivity ratio of Ki for human CA2 to Ki for human CA9
`NS(=O)(=O)c1ccc(S(=O)(=O)Nc2cccc3c(Cl)c[nH]c23)cc1` gave a Ratio Ki of 0.33.
In the case of `CC(=O)Nc1nnc(S(N)(=O)=O)s1`, the Ratio Ki is reported as 0.33.
Work on `CCOc1ccc2nc(S(N)(=O)=O)sc2c1` yielded a Ratio Ki of 0.33.
Work on `NS(=O)(=O)c1cc(Cl)c(Cl)c(S(N)(=O)=O)c1` yielded a Ratio Ki of 0.33.
Work on `CC(=O)/N=c1/sc(S(N)(=O)=O)nn1C` yielded a Ratio Ki of 0.33.
